# Measurements published in publication PMC3463759 (Clinical cancer research : an official journal of the …, 2012).
# Like-named read-outs stand apart in the source and are kept apart here.
# How the values were obtained:
# [1] = for reduction of Cmax: paclitaxel with dasatinib (Cycle 2 Day 1) vs paclitaxel alone (Cycle 1 Day 1)
# clinical = settings: human, plasma, intravenous
# [2] = paclitaxel alone, Cycle 1 Day 1, N=20
# [3] = paclitaxel alone, Cycle 1 Day 1, N=20, dose-normalized to 175 mg/m^2
# [4] = paclitaxel and dasatinib, Cycle 2 Day 1, N=18
# [5] = paclitaxel and dasatinib, Cycle 2 Day 1, N=18, dose-normalized to 175 mg/m^2
# [6] = paclitaxel with dasatinib vs paclitaxel alone
compound,measurement,setting,value
CC(=O)O[C@H]1C(=O)[C@@]2(C)[C@H]([C@H](OC(=O)c3ccccc3)[C@]3(O)C[C@H](OC(=O)[C@H](O)[C@@H](NC(=O)c4ccccc4)c4ccccc4)C(C)=C1C3(C)C)[C@]1(OC(C)=O)CO[C@@H]1[C@@H](O)[C@@H]2O [6-OH paclitaxel],inter-individual variability (%CV) for exposure,[1]; in vivo,40–70%
same,"T-HALF, Mean (SD)",[1]; [2],1.26 h
same,"AUC(0-T), Geo Mean (%CV)",[1]; [3],732 (53) ng•h/mL
same,"AUC(INF), Geo Mean (%CV)",[1]; [3],771 (53) ng•h/mL
same,"Cmax, Geo Mean (%CV)",[1]; [3],349 (44) ng/mL
same,"T-HALF, Mean (SD)","[1]; paclitaxel alone, Cycle 1 Day 1, N=20, listed as 6-OH Paclitaxel",1.26 (0.75) h
same,"M/P, metabolite to parent ratio based on dose normalized AUC(INF), Mean (SD)","[1]; paclitaxel alone, N=20",0.06 (0.04)
same,"T-HALF, Mean (SD)",[1]; [4],0.94 h
same,"AUC(0-T), Geo Mean (%CV)",[1]; [5],562 (68) ng•h/mL
same,"AUC(INF), Geo Mean (%CV)",[1]; [5],615 (68) ng•h/mL
same,"Cmax, Geo Mean (%CV)",[1]; [5],260 (58) ng/mL
same,"T-HALF, Mean (SD)","[1]; paclitaxel and dasatinib, Cycle 2 Day 1, N=18, listed as 6-OH Paclitaxel",0.94 (0.47) h
same,"M/P, metabolite to parent ratio based on dose normalized AUC(INF), Mean (SD)","[1]; paclitaxel and dasatinib, N=18",0.05 (0.02)
same,reduction of Cmax,[1],25%
same,reduction of geometric mean AUC(0-T),[1]; [6],23%
same,reduction of geometric mean AUC(INF),[1]; [6],20%
same,reduction of mean T-HALF,[1]; [6],25%
CC(=O)O[C@H]1C(=O)[C@@]2(C)[C@H]([C@H](OC(=O)c3ccccc3)[C@]3(O)C[C@H](OC(=O)[C@H](O)[C@@H](NC(=O)c4ccccc4)c4ccccc4)C(C)=C1C3(C)C)[C@]1(OC(C)=O)CO[C@@H]1C[C@@H]2O [paclitaxel],"differences in mean T-HALF, MRT(INF), CLt, and Vss",[1]; paclitaxel alone vs paclitaxel in combination with dasatinib,less than 20%
same,"CLt, Mean (SD)",[1]; [2],20.9 (6.3) L/h
same,"T-HALF, Mean (SD)",[1]; [2],11.7 (1.6) h
same,"CLt, Mean (SD)",[1]; [4],24.3 (6.0) L/h
same,"T-HALF, Mean (SD)",[1]; [4],11.7 (3.8) h
same,reduction of Cmax,[1],19%
same,reduction of geometric mean AUC(0-T),[1]; [6],15%
same,reduction of geometric mean AUC(INF),[1]; [6],14%
same,MRT inf,clinical,6.9 h
same,Vd,clinical,163 L
same,AUC(0-inf),clinical; 175 mg/m^2,16100 ng·h/mL
same,AUC(0-t),clinical; 175 mg/m^2,15700 ng·h/mL
same,Cmax,clinical; 175 mg/m^2,4820 ng/mL
same,MRT inf,clinical; 175 mg/m^2,6.7 h
